Measured values from patent US11433140B2, “Specific antibody drug conjugates (ADCs) having KSP inhibitors” (Bayer Pharma Aktiengesellschaft, priority 2016, dated 2022).
Structures can show the parent of a compound that is named as a salt.

Assays:
Caco-2 cells = assay: Cell permeability, flux assay using Caco-2 cells; assay type: in vitro ADME; conditions: for Papp (B-A): Caco-2, basal to apical, 2 hours
Protocol: The cell permeability of a substance can be investigated by means of in vitro testing in a flux assay using Caco-2 cells [M. D. Troutman and D. R. Thakker, Pharm. […] For this purpose, the cells were cultured for 15-16 days on 24-well filter plates. For the determination of permeation, the respective test substance was applied in a HEPES buffer to the cells either apically (A) or basally (B) and incubated for 2 hours. After 0 hours and after 2 hours, samples were taken from the cis and trans compartments. The samples were separated by HPLC (Agilent 1200, Böblingen, Germany) using reverse phase columns. The HPLC system was coupled via a Turbo Ion Spray Interface to a Triple Quadropole mass spectrometer API 4000 (AB SCIEX Deutschland GmbH, Darmstadt, Germany).
Of critical importance for toxophores which are released intracellularly is the permeability from B to A [Papp (B-A)] and the ratio of Papp (B-A) to Papp (A-B) (efflux ratio): The lower this permeability, the slower the active and passive transport processes of the substance through the monolayer of Caco-2 cells. If the efflux ratio, moreover, gives no indications as to active transport, the substance, following intracellular release, can remain in the cell for longer. As a consequence, the time available for interaction with the biochemical target (here: kinesin spindle protein KSP/Eg5) also increases.

SKHep-1 = assay: MTT assay, cytotoxic effect on SK-HEP-1; assay type: cell-based, human; conditions: Table 2, metabolites, MTT after 96 h
Protocol: SK-HEP-1: human liver cell cancer line, ATCC No. HTB-52, standard medium: MEM with Earle's salts+Glutamax I (Invitrogen 41090)+10% heat inactivated FCS (from Gibco, No. 10500-064); TWEAKR-positive
The cells were cultivated by the standard method, with the growth media specified in section C-1. The test was carried out by detaching the cells with a solution of Accutase in PBS (from Biochrom AG #L2143), pelletizing, resuspending in culture medium, counting and sowing into a 96-well culture plate with white bottom (from Costar #3610) (NCI H292: 2500 cells/well; SK-HEP-1: 1000 cells/well; KPL-4: 1200 cells/well; in total volume 100 μl). The cells were then incubated in an incubator at 37° C. and 5% carbon dioxide. After 48 h, the medium was replaced. The antibody drug conjugates in 10 μl of culture medium in concentrations from 10^−5M to 10^−13M were then pipetted to the cells (in triplicate), and the assay was then incubated in an incubator at 37° C. and 5% carbon dioxide. The suspension cells were counted and sown into a 96-well culture plate with white bottom (from Costar #3610) (#3610) (MOLM-13: 2000 cells/well; NB4: 7000 cells/well; MV-4-11: 5000 cells/well in a total volume of 100 μl). After 6 hours of incubation at 37° C. and 5% carbon dioxide, the medium was changed and the antibody-drug conjugates or metabolites were added by pipette in 10 μl of culture medium in concentrations of 10^−5M to 10^−13M to the cells (triplicates) in 90 μl. The batch was incubated in an incubator at 37° C. and 5% carbon dioxide. After 96 h, the cell proliferation was detected using the MTT assay (ATCC, Manassas, Va., USA, catalogue No. 30-1010K). To this end, the MTT reagent was incubated with the cells for 4 h, followed by lysis of the cells overnight by addition of the detergent. The dye formed was detected at 570 nm (Infinite M1000 pro, Tecan). The measured data were used to calculate the IC50 of the growth inhibition using the DRC (dose response curve). […]

NCI-H292 = assay: MTT assay, cytotoxic effect on NCI-H292; assay type: cell-based, human; conditions: Table 2, metabolites, MTT after 96 h
Protocol: NCI-H292: human mucoepidermoid lung carcinoma cells, ATCC-CRL-1848, standard medium: RPMI 1640 (Biochrom; #FG1215, stab. glutamine)+10% FCS (Sigma; #F2442), TWEAKR-positive; EGFR-positive,
The cells were cultivated by the standard method, with the growth media specified in section C-1. The test was carried out by detaching the cells with a solution of Accutase in PBS (from Biochrom AG #L2143), pelletizing, resuspending in culture medium, counting and sowing into a 96-well culture plate with white bottom (from Costar #3610) (NCI H292: 2500 cells/well; SK-HEP-1: 1000 cells/well; KPL-4: 1200 cells/well; in total volume 100 μl). The cells were then incubated in an incubator at 37° C. and 5% carbon dioxide. After 48 h, the medium was replaced. The antibody drug conjugates in 10 μl of culture medium in concentrations from 10^−5M to 10^−13M were then pipetted to the cells (in triplicate), and the assay was then incubated in an incubator at 37° C. and 5% carbon dioxide. The suspension cells were counted and sown into a 96-well culture plate with white bottom (from Costar #3610) (#3610) (MOLM-13: 2000 cells/well; NB4: 7000 cells/well; MV-4-11: 5000 cells/well in a total volume of 100 μl). After 6 hours of incubation at 37° C. and 5% carbon dioxide, the medium was changed and the antibody-drug conjugates or metabolites were added by pipette in 10 μl of culture medium in concentrations of 10^−5M to 10^−13M to the cells (triplicates) in 90 μl. The batch was incubated in an incubator at 37° C. and 5% carbon dioxide. After 96 h, the cell proliferation was detected using the MTT assay (ATCC, Manassas, Va., USA, catalogue No. 30-1010K). To this end, the MTT reagent was incubated with the cells for 4 h, followed by lysis of the cells overnight by addition of the detergent. The dye formed was detected at 570 nm (Infinite M1000 pro, Tecan). The measured data were used to calculate the IC50 of the growth inhibition using the DRC (dose response curve). The proliferation of cells which were not treated with test substance but were otherwise identically treated was defined as the 100% figure.

MV-4-11 = assay: MTT assay, cytotoxic effect on MV-4-11; assay type: cell-based, human; conditions: Table 2; metabolites; MTT after 96 h
Protocol: (§1) C-1a: Determination of the Cytotoxic Effect of the ADCs Directed Against CD123 and CXCR5
(§2) The analysis of the cytotoxic effect of the exemplary ADCs was carried out with various cell lines:
MV-4-11: human biphenotypic B myelomonocytic leukaemia cells obtained from peripheral blood, ATCC-CRL-9591, standard medium: IMDM (ATCC: 30-2005), +10% heat inactivated FCS (Gibco, No. 10500-064); CD123-positive
(§3) The cells were cultivated by the standard method, with the growth media specified in section C-1. The test was carried out by detaching the cells with a solution of Accutase in PBS (from Biochrom AG #L2143), pelletizing, resuspending in culture medium, counting and sowing into a 96-well culture plate with white bottom (from Costar #3610) (NCI H292: 2500 cells/well; SK-HEP-1: 1000 cells/well; KPL-4: 1200 cells/well; in total volume 100 μl). […] The suspension cells were counted and sown into a 96-well culture plate with white bottom (from Costar #3610) (#3610) (MOLM-13: 2000 cells/well; NB4: 7000 cells/well; MV-4-11: 5000 cells/well in a total volume of 100 μl). […] After 96 h, the cell proliferation was detected using the MTT assay (ATCC, Manassas, Va., USA, catalogue No. 30-1010K). […] The dye formed was detected at 570 nm (Infinite M1000 pro, Tecan). The measured data were used to calculate the IC50 of the growth inhibition using the DRC (dose response curve). […]

KPL-4 = assay: MTT assay, cytotoxic effect on KPL-4; assay type: cell-based, human; conditions: Table 2; metabolites; MTT after 96 h
Protocol: KPL4: human breast cancer cell line, Bayer Pharma AG (identity checked and confirmed on 19 Jul. 2012 at DSMZ), standard medium: RPMI 1640 (from Gibco; #21875-059, stab. L-glutamine)+10% heat inactivated FCS (Gibco, No. 10500-064); HER2-positive.
The cells were cultivated by the standard method, with the growth media specified in section C-1. The test was carried out by detaching the cells with a solution of Accutase in PBS (from Biochrom AG #L2143), pelletizing, resuspending in culture medium, counting and sowing into a 96-well culture plate with white bottom (from Costar #3610) (NCI H292: 2500 cells/well; SK-HEP-1: 1000 cells/well; KPL-4: 1200 cells/well; in total volume 100 μl). The cells were then incubated in an incubator at 37° C. and 5% carbon dioxide. After 48 h, the medium was replaced. […] The suspension cells were counted and sown into a 96-well culture plate with white bottom (from Costar #3610) (#3610) (MOLM-13: 2000 cells/well; NB4: 7000 cells/well; MV-4-11: 5000 cells/well in a total volume of 100 μl). […] After 96 h, the cell proliferation was detected using the MTT assay (ATCC, Manassas, Va., USA, catalogue No. 30-1010K). […] The dye formed was detected at 570 nm (Infinite M1000 pro, Tecan). The measured data were used to calculate the IC50 of the growth inhibition using the DRC (dose response curve). […]

MOLM-13 = assay: MTT assay, cytotoxic effect on MOLM-13; assay type: cell-based, human; conditions: Table 2; metabolites; MTT after 96 h
Protocol: as §1, §2
MOLM-13: human acute monocytic leukaemia cells (AML-M5a), DSMZ, No. ACC 554, standard medium: RPMI 1640 (from Gibco; #21875-059, stab. L-glutamine)+20% heat inactivated FCS (Gibco, No. 10500-064); CD123-positive.
as §3

[1] = biological target: T1, human kinesin spindle protein KSP/Eg5 (Homo sapiens, UniProt P52732); assay: Inhibition of the kinesin spindle protein KSP/Eg5 (ATPase activity, malachite green); assay type: biochemical; conditions: motor domain 10 nM, microtubuli, ATP 500 μM, 2 h RT
T1 construct: The motor domain of the human kinesin spindle protein KSP/Eg5; purchased tebu-bio/Cytoskeleton Inc 027EG01-XL
T1 sequence (P52732 18-359 limits assumed): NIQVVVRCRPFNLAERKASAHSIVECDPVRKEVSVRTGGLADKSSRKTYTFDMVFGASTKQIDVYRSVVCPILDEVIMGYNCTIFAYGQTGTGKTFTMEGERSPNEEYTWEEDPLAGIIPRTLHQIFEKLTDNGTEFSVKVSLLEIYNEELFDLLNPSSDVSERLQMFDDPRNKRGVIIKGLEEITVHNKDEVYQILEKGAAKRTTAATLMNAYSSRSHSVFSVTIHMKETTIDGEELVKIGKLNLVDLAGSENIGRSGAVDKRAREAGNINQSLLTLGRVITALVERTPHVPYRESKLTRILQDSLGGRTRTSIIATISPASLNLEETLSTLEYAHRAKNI
Protocol: The motor domain of the human kinesin spindle protein KSP/Eg5 (tebu-bio/Cytoskeleton Inc, No. 027EG01-XL) was incubated in a concentration of 10 nM with microtubuli (bovine or porcine, tebu-bio/Cytoskeleton Inc) stabilized with 50 μg/ml taxol (Sigma No. T7191-5MG) for 5 min at RT in 15 mM PIPES, pH 6.8 (5 mM MgCl2 and 10 mM DTT, Sigma). […] Incubation was at RT for 2 h. ATPase activity was detected by detecting the inorganic phosphate formed using malachite green (Biomol). […] The positive controls used were monastrol (Sigma, M8515-1 mg) and ispinesib (AdooQ Bioscience A10486). The individual data of the dose-activity curve are eight-fold determinations. The IC50 values are means of two independent experiments.

Row | Compound | Papp (B-A) (Caco-2 cells) [×10⁻⁶ cm/s] | IC50 (SKHep-1; Homo sapiens, SK-HEP1) [nM] | IC50 (NCI-H292; Homo sapiens, NCI-H292) [nM] | Efflux ratio compared with the reference metabolites (Caco-2 cells; Caco-2, in words) | Transport from the cell compared with the reference metabolites (Caco-2 cells; Caco-2, in words) | Efflux ratio (Caco-2 cells; Caco-2, ratio of Papp (B-A) to Papp (A-B)) | IC50 (MV-4-11) [nM] | IC50 (KPL-4) [nM] | IC50 (SKHep-1) [nM] | IC50 (MOLM-13) [nM] | IC50 [1] [nM] | IC50 (NCI-H292) [nM]
1 | CC(C)(C)[C@H](c1cc(-c2cc(F)ccc2F)cn1Cc1ccccc1)N(CC[C@H](N)C(=O)NCCNC(=O)CNC(=O)CC(SC[C@H](N)C(=O)O)C(=O)O)C(=O)CO (mixture of isomers) [Example Rm1, 4-[(2-{[2-({(2S)-2-Amino-4-[{(1R)-1-[1-benzyl-4-(2,5-difluorophenyl)-1H-pyrrol-2-yl]-2,2-dimethylpropyl}(glycoloyl)amino]butanoyl}amino)ethyl]amino}-2-oxoethyl)amino]-2-{[(2R)-2-amino-2-carboxyethyl]sulfanyl}-4-oxobutanoic Acid Trifluoroacetic Acid Salt] | 1.3 | 19 | 63.6 |  |  |  |  |  |  |  |  | 
2 | CC(C)(C)[C@H](c1cc(-c2cc(F)ccc2F)cn1Cc1ccccc1)N(CC[C@H](N)C(=O)NCCNC(=O)CNC(=O)C(CC(=O)O)SC[C@H](N)C(=O)O)C(=O)CO (mixture of isomers) [Example Rm2, 4-[(2-{[2-({(2S)-2-Amino-4-[{(1R)-1-[1-benzyl-4-(2,5-difluorophenyl)-1H-pyrrol-2-yl]-2,2-dimethylpropyl}(glycoloyl)amino]butanoyl}amino)ethyl]amino}-2-oxoethyl)amino]-3-{[(2R)-2-amino-2-carboxyethyl]sulfanyl}-4-oxobutanoic Acid Trifluoroacetic Acid Salt] |  | 89 | 276 |  |  |  |  |  |  |  |  | 
3 | CC(C)(C)[C@H](c1cc(-c2cc(F)ccc2F)cn1Cc1ccccc1)N(CC[C@H](N)C(=O)NCCNC(=O)[C@@H](CCC(=O)O)NC(=O)CNC(=O)CC(SC[C@H](N)C(=O)O)C(=O)O)C(=O)CO.O=C(O)C(F)(F)F (stereo partly drawn) [Example M1, N-(3-{[(2R)-2-Amino-2-carboxyethyl]sulfanyl}-3-carboxypropanoyl)glycyl-N-[2-({(25)-2-amino-4-[{(1R)-1-[1-benzyl-4-(2,5-difluorophenyl)-1H-pyrrol-2-yl]-2,2-dimethylpropyl}(glycoloyl)amino]butanoyl}amino)ethyl]-D-alpha-glutamine trifluoroacetic Acid Salt] | 0.12 |  |  | reduced efflux ratio | reduced transport from the cell | 0.8 | 302 | 500 | 98.8 | 125 | 2.13 | 500
